Results: patent US8642630B2, “Endogeneous repair factor production accelerators” (Ono Pharmaceutical Co., Ltd., priority 2002, dated 2014)

Columns and labels:
[1] = tested on: mouse sponge transplantation model; assay: Angiogenesis test using mouse sponge transplantation model, Example 8; assay type: in vivo; details: for Hemoglobin content / Sponge wet weight: 15th day; for hemoglobin concentration in the granulation tissue, in words: vs polymer group
Experimental: Under anesthesia, dorsal part of a mouse was incised and a discus urethane sponge (about 5 mm in thickness and 13 mm in diameter) was embedded therein. Administration of the agent was carried out by topically administering it directly into the sponge once a day for a total of 14 times starting on the day of the sponge transplantation model preparation, or on the operation-completed day and 7th day thereafter. On the 15th day after the sponge transplantation, the sponge containing granulation tissue was extracted and observed with the naked eye, and then its wet mass was measured. In addition, this was mixed with distilled water of 4 times larger amount than the wet mass, homogenized and centrifuged, and then the supernatant was subjected to the measurement of the hemoglobin content using Hemoglobin 13-Test Wako (manufactured by Wako Pure Chemical Industries).
(§1) • The polylactic acid-glycolic acid copolymer used in Preparation Example 2 was suspended in 0.2 w/v % Tween 80 solution (0.05 ml). In this connection, amount of the polylactic acid-glycolic acid copolymer is identical to the amount contained in Compound 1 MS (200 μg). Compound 1 (20 μg) Group: • Compound 1 (20 μg) was suspended in 0.2 w/v % Tween 80 solution (0.05 ml). Compound 1 (40 μg) Group:
Compound 1 (40 μg) was suspended in 0.2 w/v % Tween 80 solution (0.05 ml).
• Compound 1 (200 μg) was suspended in 0.2 w/v % Tween 80 solution (0.05 ml). Compound 1 MS (200 μg) group: • The microsphere preparation produced in Preparation Example 2 containing […] of Compound 1 was suspended in 0.2 w/v % Tween 80 solution (0.05 ml). Compound 1 MS (400 μg) Group: • The microsphere preparation produced in Preparation Example 2 containing 400 μg of Compound 1 was suspended in 0.2 w/v % Tween 80 solution (0.05 ml). Compound 3 (20 μg) Group: • Compound 3 (20 μg) was suspended in 0.2 w/v % Tween 80 solution (0.05 ml).

[2] = tested on: rat leg ischemia (arteriosclerosis obliterans (ASO)) model; assay: Rat leg ischemia (ASO) model; usefulness of topical administration, Example 6; assay type: in vivo; details: 0.1 mg, intramuscular administration into the ischemic left femoral part
Experimental: Leg ischemia model was prepared by ligating rat left femoral artery. Blood flow in hind legs was measured by using Laser Doppler Imager (Moor Instruments) 1 week after the preparation, and the animals were divided into 4 groups (n=5) in such a manner that the average value of blood flow became almost uniform.
Starting on the next day of the grouping, 0.1 ml/site, 2 sites, of the agent to be tested was administered by intramuscular injection into ischemic regions of the left femoral adductor (polymer group, Compound 1 group, Compound 1 MS group) and normal region of the right shoulder upper arm (Compound 1 MS group), for once a week, 4 times in total as a solution to be tested. One week after completion of the final administration, blood flows of hind legs were measured by using Laser Doppler Imager (Moor Instruments), and blood flows of the treated leg (left leg) and untreated leg (right leg) were compared and examined.
as §1, with “(0.2” for “(0.05”, “(1 mg).” for “(200 μg).”, “(0.1 mg)” for “(20 μg)”, “Compound 1 (40 μg) Group:” left out

[3] = 20 μg into the sponge once a day, 14 days of repeated administration
[4] = 40 μg into the sponge once a day, 14 days of repeated administration
[5] = 200 μg into the sponge, two administrations at 7 day intervals

In the case of `O=C(O)COc1cccc2c1CCC=C2CCO/N=C(\c1ccccc1)c1cccnc1` [Compound 1, (E)-[5-[2-[1-phenyl-1-(3-pyridyl)methylideneaminoxy]ethyl]-7,8-dihydronaphthalen-1-yloxy]acetic acid], the Hemoglobin content [1, 3] was 2.403 ± 0.533 mg/g wet tissue, the Sponge wet weight [1, 3] was 0.3843 ± 0.0681 g and the “hemoglobin concentration in the granulation tissue, in words” value (“hemoglobin concentration” for short) ([1]; 20 μg, 14 days of repeated administration) was “showed an increasing tendency, but is not a significant increase”. The Hemoglobin content [1, 4] was 3.010 ± 0.808 mg/g wet tissue, the Sponge wet weight [1, 4] was 0.5136 ± 0.0938 g and the “hemoglobin concentration” value ([1]; 40 μg, 14 days of repeated administration) was “showed an increasing tendency, but is not a significant increase”. The Hemoglobin content [1, 5] was 1.964 ± 0.289 mg/g wet tissue, the Sponge wet weight [1, 5] was 0.4123 ± 0.0320 g and the “hemoglobin concentration” value ([1]; 200 μg, two administrations at 7 day intervals) was “did not increase”. The “increase in the blood flow, in words” value [2] was “significant blood flow increasing action was not observed” and the “Treated leg/untreated leg blood flow ratio” value ([2]; once a week x4, 1 week after final administration) was 60.5 ± 3.1%.
